Source: PMC3478670 (Journal of medicinal chemistry, 2012)

Test system: HIV-1NL4-3
Experiment: HIV-1NL4-3 replication inhibition assay in MT-4 lymphocytes
Assay type: cell-based
Conditions: HIV-1NL4-3 infected MT-4 cells
For `C=C(C)[C@@H]1CC[C@]2(C(=O)OCOCCOC)CC[C@]3(C)[C@H](CC[C@@H]4[C@@]5(C)CC[C@H](O)C(C)(C)[C@@H]5CC[C@]43C)[C@@H]12` [Compound 8, Methoxyethoxymethyl 3β-hydroxy-lup-20(29)-en-28-oate], the “anti-HIV replication activity (in words)” value was “did not show anti-HIV activity”. For `C=C(C)[C@@H]1CC[C@]2(C(=O)OCOC)CC[C@]3(C)[C@H](CC[C@@H]4[C@@]5(C)CC[C@H](O)C(C)(C)[C@@H]5CC[C@]43C)[C@@H]12` [Compound 7, Methoxymethyl 3β-hydroxy-lup-20(29)-en-28-oate], the “anti-HIV replication activity (in words)” value was “did not show anti-HIV activity”. In the case of `C=C(C)[C@@H]1CC[C@]2(C(=O)OCOC)CC[C@]3(C)[C@H](CC[C@@H]4[C@@]5(C)CC[C@H](OCOC)C(C)(C)[C@@H]5CC[C@]43C)[C@@H]12` [Compound 3, Methoxymethyl 3β-methoxymethoxy-lup-20(29)-en-28-oate], the “anti-HIV replication activity (in words)” value is reported as “did not show anti-HIV activity”. In the case of `C=C(C)[C@@H]1CC[C@]2(C(=O)O)CC[C@]3(C)[C@H](CC[C@@H]4[C@@]5(C)CC[C@H](OCOC)C(C)(C)[C@@H]5CC[C@]43C)[C@@H]12` [Compound 5, 3β-Methoxymethoxy-betulinic acid], the “anti-HIV replication activity (in words)” value is reported as “did not show anti-HIV activity”. In the case of `C=C(C)[C@@H]1CC[C@]2(C(=O)OCCCCCCCC)CC[C@]3(C)[C@H](CC[C@@H]4[C@@]5(C)CC[C@H](OC(=O)CC(C)(C)C(=O)O)C(C)(C)[C@@H]5CC[C@]43C)[C@@H]12` [Compound 23, Octyl 3β-O-(3′,3′-dimethylsuccinyl)-lup-20(29)-en-28-oate], the “anti-HIV replication activity (in words)” value is reported as “no inhibition of HIV-1 replication”. For `C=C(C)[C@@H]1CC[C@]2(C(=O)OCOCCOC)CC[C@]3(C)[C@H](CC[C@@H]4[C@@]5(C)CC[C@H](OCOCCOC)C(C)(C)[C@@H]5CC[C@]43C)[C@@H]12` [Compound 4, Methoxyethoxymethyl 3β-methoxyethoxymethoxy-lup-20(29)-en-28-oate], the “anti-HIV replication activity (in words)” value was “did not show anti-HIV activity”. In the case of `C=C(C)[C@@H]1CC[C@]2(C(=O)O)CC[C@]3(C)[C@H](CC[C@@H]4[C@@]5(C)CC[C@H](OCOCCOC)C(C)(C)[C@@H]5CC[C@]43C)[C@@H]12` [Compound 6, 3β-Methoxyethoxymethoxy-betulinic acid], the “anti-HIV replication activity (in words)” value is reported as “did not show anti-HIV activity”.

Test system: not listed separately
Experiment: in vitro
Conditions: human, pooled human liver microsomes, pH 7.4
In the case of `C=C(C)[C@@H]1CC[C@]2(C(=O)N3CCN(CCCCC(=O)O)CC3)CC[C@]3(C)[C@H](CC[C@@H]4[C@@]5(C)CC[C@H](OC(=O)CC(C)(C)C(=O)O)C(C)(C)[C@@H]5CC[C@]43C)[C@@H]12` [Compound 41, N-[3β-O-(3′,3′-Dimethylsuccinyl)-lup-20(29)-en-28-oyl]-5-piperazinepentanoic acid], the microsomal CLint at 1 μM is reported as 2.1 µL/min/mg.
